Legend:
[1] = Metabolic stability in human liver microsomes; format: in vitro ADME; conditions: for microsomal CLint: 0.5 mg protein/mL
In short: (§1)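 Compound incubated at 37 °C with 0.5 mg protein/mL liver microsomes plus cofactors in PBS, sampled at 0–60 min, quenched with cold acetonitrile and quantified by HPLC-MS/MS (n=3). Half-life and Clint (μL/min/mg) come from the slope of ln(% remaining) versus time.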

GST-RORγ LBD (263-509) = target: T1, GST-RORγ LBD (263-509) (Homo sapiens, UniProt P51449); assay: TR-FRET assay of agonistic activity on RORγ receptor; format: biochemical; conditions: for EC50: TR-FRET, GST-RORγ LBD with Biotin-SRC1
T1 construct: GST-RORγ LBD ((263-509) (produced at ChemPartner))
T1 sequence (P51449 263-509): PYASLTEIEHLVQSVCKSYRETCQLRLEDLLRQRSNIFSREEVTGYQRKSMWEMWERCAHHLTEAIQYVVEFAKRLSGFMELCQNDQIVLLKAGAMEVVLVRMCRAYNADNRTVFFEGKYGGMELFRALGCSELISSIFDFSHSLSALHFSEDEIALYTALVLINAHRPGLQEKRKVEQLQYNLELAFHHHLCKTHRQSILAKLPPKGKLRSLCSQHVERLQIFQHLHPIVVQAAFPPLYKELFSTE
In short: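 GST-RORγ LBD (75 nM solution) mixed 1:1 with Biotin-SRC1 (4 nM solution), then with Eu anti-GST and SA-APC; compounds in 10-point 3-fold series from 10 mM stock, duplicate.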

[2] = target: T2, RORγt (RORγ-LBD chimeric receptor) (Homo sapiens, UniProt P51449); assay: Luciferase reporter gene assay of RORγt agonistic activity in HEK293T cells; format: cell-based; parameters: Emax: dose or concentration left out as unconfirmed; conditions: for EC50: HEK293T, GAL4 luciferase reporter, read-out: EC50; for Emax: HEK-293T
T2 construct: host or cells: HEK293T
T2 sequence (P51449 269-508 limits assumed): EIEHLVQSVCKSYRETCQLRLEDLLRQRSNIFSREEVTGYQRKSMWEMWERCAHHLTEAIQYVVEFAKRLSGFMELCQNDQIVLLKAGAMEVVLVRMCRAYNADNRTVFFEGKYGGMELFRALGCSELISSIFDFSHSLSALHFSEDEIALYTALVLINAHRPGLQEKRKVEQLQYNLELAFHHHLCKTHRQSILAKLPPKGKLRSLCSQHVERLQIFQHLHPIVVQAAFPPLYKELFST
In short: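 HEK293T cells co-transfected with GAL4-RORγ-LBD (pBIND) and GAL4-driven luciferase reporter (pGL4.35), then treated with compounds (10-point 3-fold series; 10 mM top DMSO stock). Luminescence (Steady-Glo) normalised to positive and vehicle controls as % activity; EC50 by log-concentration fit.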

human PBMC (Th17 cells) = assay: Th17 differentiation and IL-17 secretion in human PBMC; format: cell-based; conditions: IL-17 ELISA after 48 hours; for Emax: maximum activation rate
Description: Test procedure: PBMC cells were first thawed and plated, and then stimulated with stimulating factors (anti-hCD28: 5 μg/mL; rhTGF-β1: 5 ng/mL; rhIL-6: 20 ng/mL; rhIL-23: 10 ng/Ml) to differentiate to Th17, while adding different concentrations of compounds. All test compounds were serially diluted at 3-fold dilution with DMSO, with 8 serial dilutions starting from the maximum concentration 3 μM. The supermatants were collected after 48 hours for IL-17 ELISA detection, and compared with the solvent group, to determine the activation rate of the compounds on Th17 cells to secrete IL-17. EC50 values were fitted with Graphad8.0, and the TOP values fitted by the software was Emax %.

[3] = Metabolic stability in mouse liver microsomes; format: in vitro ADME, CD-1 mice; conditions: for half-life: CD-1; for microsomal CLint: CD-1, 0.5 mg protein/mL
In short: as §1

[4] = Pharmacokinetic (PK) assay in mice; format: in vivo; conditions: CD-1 mice
In short: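 CD-1 mice (3 per group) were dosed IV at 1 mg/kg in 5% DMSO/40% PEG400/55% (20% 3-CD) or by oral gavage at 5 mg/kg in DMSO/1% methylcellulose (1:99). Saphenous blood was sampled from 0 to 24 h into EDTA-K2 tubes for plasma. Plasma levels were measured by UPLC-MS/MS, and PK parameters were calculated from them.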

[5] = maximum activation rate, TOP of fitted curve

Row | SMILES | half-life [1] | microsomal CLint [1] | % Remaining (T = 60 min) [1] | EC50 (GST-RORγ LBD (263-509)) | Emax (GST-RORγ LBD (263-509); [5]) | EC50 [2] | Emax [2] | % Remaining (T = 60 min) [3] | half-life [3] | microsomal CLint [3] | EC50 (human PBMC (Th17 cells)) | Emax (human PBMC (Th17 cells)) | further results
1 | COCC(C(=O)Nc1cc(Cl)c(-c2ccc(S(=O)(=O)C3CC3)cc2)c(Cl)c1)c1ccc(S(C)(=O)=O)cc1 (single isomer, unassigned) [Example 34, (S)—N-(2,6-dichloro-4′-(cyclopropylsulfonyl)-[1,1′-biphenyl]-4-yl)-3-methoxy-2-(4-(methylsulfonyl)phenyl)propanamide or (R)—N-(2,6-dichloro-4′-(cyclopropylsulfonyl)-[1,1′-biphenyl]-4-yl)-3-methoxy-2-(4-(methylsulfonyl)phenyl)propanamide] | 88.6 min | 15.6 µL/min/mg | 62.4% | 5.1 nM | 191% | 67 nM | 70.7% | 74.5% | > 145 min | < 9.6 µL/min/mg | 57.2 nM | 195% | –
2 | CS(=O)(=O)c1ccc(C(CO)C(=O)Nc2cc(Cl)c(-c3ccc(S(=O)(=O)C4CC4)cc3)c(Cl)c2)cc1 (single isomer, unassigned) [Example 36, (S)—N-(2,6-Dichloro-4′-(cyclopropylsulfonyl)-[1,1′-biphenyl]-4-yl)-2-(4-(methylsulfonyl)phenyl)-3-hydroxypropionamide or (R)—N-(2,6-dichloro-4′-(cyclopropylsulfonyl)-[1,1′-biphenyl]-4-yl)-2-(4-(methylsulfonyl)phenyl)-3-hydroxypropionamide] | 101 min | 13.7 µL/min/mg | 62.3% | 4.3 nM | 200% | 54 nM | 71.3% | 83.9% | > 145 min | < 9.6 µL/min/mg | 36.2 nM | 169% | –
3 | CCS(=O)(=O)c1ccc(C(COC)C(=O)Nc2cc(Cl)c(-c3ccc(S(=O)(=O)C4CC4)cc3)c(Cl)c2)cc1 (single isomer, unassigned) [Example 40, (S)—N-(2,6-dichloro-4′-(cyclopropylsulfonyl)-[1,1′-biphenyl]-4-yl)-2-(4-(ethylsulfonyl)phenyl)-3-methoxypropionamide or (R)—N-(2,6-dichloro-4′-(cyclopropylsulfonyl)-[1,1′-biphenyl]-4-yl)-2-(4-(ethylsulfonyl)phenyl)-3-methoxypropionamide] | 144 min | 9.6 µL/min/mg | 71.1% | 9.9 nM | – | 93 nM | 77.5% | 71.8% | 117 min | 11.8 µL/min/mg | 25.8 nM | 224% | Emax % (GST-RORγ LBD (263-509); [5]): 199.3%

More lines, main results first:

Row | half-life [1] | microsomal CLint [1] | % Remaining (T = 60 min) [1] | EC50 (GST-RORγ LBD (263-509)) | Emax (GST-RORγ LBD (263-509); [5]) | EC50 [2] | Emax [2] | % Remaining (T = 60 min) [3] | half-life [3] | microsomal CLint [3] | SMILES | EC50 (human PBMC (Th17 cells)) | Emax (human PBMC (Th17 cells)) | further results
4 | > 145 min | < 9.6 µL/min/mg | 77.2% | 5.9 nM | 190% | 124 nM | 103% | 70.7% | 108 min | 12.9 µL/min/mg | CCS(=O)(=O)c1ccc(C(CO)C(=O)Nc2cc(Cl)c(-c3ccc(S(=O)(=O)C4CC4)cc3)c(Cl)c2)cc1 (single isomer, unassigned) [Example 38, (S)—N-(2,6-dichloro-4′-(cyclopropylsulfonyl)-[1,1′-biphenyl]-4-yl)-2-(4-(ethylsulfonyl)phenyl)-3-hydroxypropionamide or (R)—N-(2,6-dichloro-4′-(cyclopropylsulfonyl)-[1,1′-biphenyl]-4-yl)-2-(4-(ethylsulfonyl)phenyl)-3-hydroxypropionamide] | 22.8 nM | 179% | –
5 | > 145 min | < 9.6 µL/min/mg | 82% | 3.7 nM | 171% | 13 nM | 42.1% | 78.60% | > 145 min | < 9.6 µL/min/mg | CCS(=O)(=O)c1ccc(CC(=O)Nc2cc(Cl)c(-c3ccc(S(=O)(=O)C4CC4)cc3)c(Cl)c2)cc1 [Example 6] | 49.2 nM | 254% | –
6 | > 145 min | < 9.6 µL/min/mg | 79.6% | – | – | 72 nM | 51.2% | 56% | 80.1 min | 17.3 µL/min/mg | CCS(=O)(=O)c1ccc(CC(=O)Nc2cc(Cl)c(-c3ccc(S(=O)(=O)C4CC4)cc3)c(Cl)c2)nc1 [Example 21, N-(2,6-Dichloro-4′-(cyclopropylsulfonyl)-1,1′-biphenyl-4-yl)-2-(5-(ethylsulfonyl)pyridin-2-yl)acetamide] | 183 nM | 297% | CL_obs ([4]; IV 1 mg/kg, values marked **): 4.55** mL/min/kg; AUC(0-t) ([4]; mouse, plasma, IV 1 mg/kg): 3630 ng·h/mL; Cmax ([4]; mouse, plasma, IV 1 mg/kg): 716 ng/mL; half-life ([4]; mouse, plasma, IV 1 mg/kg): 251 min; Vd ([4]; mouse, plasma, IV 1 mg/kg, values marked *, read-out: Vss): 1.45 L/kg; bioavailability ([4]; mouse, plasma, Po 5 mg/kg vs IV 1 mg/kg): 30.9%; AUC(0-t) ([4]; mouse, plasma, Po 5 mg/kg): 5630 ng·h/mL; Cmax ([4]; mouse, plasma, Po 5 mg/kg): 611 ng/mL; half-life ([4]; mouse, plasma, Po 5 mg/kg): 230 min

Reference: US20220402867A1, “SULFO-SUBSTITUTED BIARYL COMPOUND OR SALT THEREOF, PREPARATION METHOD THEREFOR, AND USE THEREOF” (Shanghai Litedd Co., Ltd., priority 2019, published 2022)
